The experiment has as its target T1, human NaV 1.8 (Homo sapiens, UniProt Q9Y5Y9).
T1 construct: expressed in transfected cells; host or cells: HEK (recombinant cell line)
As to the kind of experiment: Automated whole-cell patch clamp (Qube384) voltage-clamp recordings of sodium currents in HEK-NaV1.8 cell line. Type of experiment: cell-based. Conditions: read-out: Potency category (human NaV 1.8 IC50). In short, it runs like this: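 HEK cells expressing NaV1.8 with b3, whole-cell automated voltage clamp at room temperature or 19° C.; CsF-based internal, pH 7.4 external. State-dependent (−120 mV, V1/2 4 s, −10 mV test pulses) and 10/20 Hz 40-pulse protocols; ~12 min compound, vehicle-corrected, IC50 by 4-parameter logistic fit.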

One may read the IC50 as the midpoint of a concentration-inhibition curve.

T1 sequence (Q9Y5Y9 whole entry): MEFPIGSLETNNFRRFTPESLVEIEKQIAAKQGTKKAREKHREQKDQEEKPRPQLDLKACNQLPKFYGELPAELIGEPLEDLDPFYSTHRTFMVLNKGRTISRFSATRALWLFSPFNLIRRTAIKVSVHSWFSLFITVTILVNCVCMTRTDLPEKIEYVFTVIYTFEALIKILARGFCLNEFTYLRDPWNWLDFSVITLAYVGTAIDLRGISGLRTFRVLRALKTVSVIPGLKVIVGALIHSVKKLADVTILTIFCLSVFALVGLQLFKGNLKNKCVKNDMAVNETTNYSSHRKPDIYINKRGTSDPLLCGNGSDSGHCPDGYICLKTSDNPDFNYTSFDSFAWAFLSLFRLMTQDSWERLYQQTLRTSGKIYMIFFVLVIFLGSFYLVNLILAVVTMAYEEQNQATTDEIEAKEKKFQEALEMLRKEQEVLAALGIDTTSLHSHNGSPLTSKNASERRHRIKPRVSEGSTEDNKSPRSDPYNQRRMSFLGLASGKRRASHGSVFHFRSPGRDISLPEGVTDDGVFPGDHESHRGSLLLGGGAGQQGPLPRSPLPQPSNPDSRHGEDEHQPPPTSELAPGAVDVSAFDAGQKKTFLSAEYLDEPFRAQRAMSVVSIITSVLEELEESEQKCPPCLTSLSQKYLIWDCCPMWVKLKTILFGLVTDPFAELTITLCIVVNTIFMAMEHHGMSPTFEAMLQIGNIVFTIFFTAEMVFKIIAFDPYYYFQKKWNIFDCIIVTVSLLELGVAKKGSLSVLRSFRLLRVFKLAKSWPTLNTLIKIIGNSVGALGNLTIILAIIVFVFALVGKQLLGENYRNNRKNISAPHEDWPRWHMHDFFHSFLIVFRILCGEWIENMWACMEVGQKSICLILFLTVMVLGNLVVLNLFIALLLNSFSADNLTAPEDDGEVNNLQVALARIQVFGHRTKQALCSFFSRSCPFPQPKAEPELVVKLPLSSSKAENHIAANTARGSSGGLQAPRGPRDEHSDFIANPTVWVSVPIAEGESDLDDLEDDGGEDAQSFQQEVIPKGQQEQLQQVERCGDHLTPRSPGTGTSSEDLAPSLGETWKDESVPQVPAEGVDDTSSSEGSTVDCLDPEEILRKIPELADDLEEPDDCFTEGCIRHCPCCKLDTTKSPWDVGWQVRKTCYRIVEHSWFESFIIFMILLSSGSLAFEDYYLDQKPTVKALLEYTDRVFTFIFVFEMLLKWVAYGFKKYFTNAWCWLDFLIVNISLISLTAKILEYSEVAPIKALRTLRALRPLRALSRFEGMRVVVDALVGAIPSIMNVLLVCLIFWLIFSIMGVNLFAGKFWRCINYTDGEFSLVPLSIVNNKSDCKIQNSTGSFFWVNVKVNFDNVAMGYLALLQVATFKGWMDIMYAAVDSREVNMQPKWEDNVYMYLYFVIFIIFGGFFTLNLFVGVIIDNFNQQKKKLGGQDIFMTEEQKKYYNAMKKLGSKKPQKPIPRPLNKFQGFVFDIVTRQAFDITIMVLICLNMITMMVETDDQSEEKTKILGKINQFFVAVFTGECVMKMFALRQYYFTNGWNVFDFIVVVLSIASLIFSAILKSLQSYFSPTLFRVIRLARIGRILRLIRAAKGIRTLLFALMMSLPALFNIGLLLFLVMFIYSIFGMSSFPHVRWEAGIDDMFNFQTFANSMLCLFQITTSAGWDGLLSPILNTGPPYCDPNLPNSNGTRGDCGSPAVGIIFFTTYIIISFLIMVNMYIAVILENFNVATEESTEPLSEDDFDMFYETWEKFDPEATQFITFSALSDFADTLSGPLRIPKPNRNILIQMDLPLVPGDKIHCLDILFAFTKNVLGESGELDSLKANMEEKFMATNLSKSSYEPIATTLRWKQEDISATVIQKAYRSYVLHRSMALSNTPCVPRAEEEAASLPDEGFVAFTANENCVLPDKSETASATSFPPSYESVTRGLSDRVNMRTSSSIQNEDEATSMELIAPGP

For `CC1(Cn2nc(C3CCC3)c(C(F)(F)F)c2C(=O)Nc2ccnc(S(C)(=N)=O)c2)CC(F)(F)C1` (single isomer, unassigned) [Example 56a, 3-cyclobutyl-1-((3,3-difluoro-1-methylcyclobutyl)methyl)-N-(2-(S-methylsulfonimidoyl)pyridin-4-yl)-4-(trifluoromethyl)-1H-pyrazole-5-carboxamide], the half-inhibitory concentration (IC50) is not above 100 nM.
The result for `CC1(Cn2nc(C3CC(F)(F)C3)c(C(F)(F)F)c2C(=O)Nc2ccnc(S(C)(=N)=O)c2)CC(F)(F)C1` (single isomer, unassigned) [Example 57b, 1-((3,3-Difluoro-1-methylcyclobutyl)methyl)-3-(3,3-difluorocyclobutyl)-N-(2-(S-methylsulfonimidoyl)pyridin-4-yl)-4-(trifluoromethyl)-1H-pyrazole-5-carboxamide] reads not above 100 nM.
The result for `CC1(Cn2nc(C3CC34CC4)c(C(F)(F)F)c2C(=O)Nc2ccnc(S(C)(=N)=O)c2)CC(F)(F)C1` (single isomer, unassigned) [Example 64a, 1-((3,3-difluoro-1-methylcyclobutyl)methyl)-N-(2-(S-methylsulfonimidoyl)pyridin-4-yl)-3-(spiro[2.2]pentan-1-yl)-4-(trifluoromethyl)-1H-pyrazole-5-carboxamide] reads not above 100 nM.
`CC1(Cn2nc(C3(F)CC3)c(C(F)(F)F)c2C(=O)Nc2ccnc(S(C)(=N)=O)c2)CC(F)(F)C1` (single isomer, unassigned) [Example 70b, 1-((3,3-Difluoro-1-methylcyclobutyl)methyl)-3-(1-fluorocyclopropyl)-N-(2-(S-methylsulfonimidoyl)pyridin-4-yl)-4-(trifluoromethyl)-1H-pyrazole-5-carboxamide]: the half-inhibitory concentration (IC50) was not above 100 nM.
Under `CC1(Cn2nc(C3CCC3)c(C(F)(F)F)c2C(=O)Nc2ccnc(S(C)(=N)=O)c2)CC(F)(F)C1` (single isomer, unassigned) [Example 56b, 3-cyclobutyl-1-((3,3-difluoro-1-methylcyclobutyl)methyl)-N-(2-(S-methylsulfonimidoyl)pyridin-4-yl)-4-(trifluoromethyl)-1H-pyrazole-5-carboxamide] stands not above 100 nM.
Under `CC1(Cn2nc(C3CC3(F)F)c(C(F)(F)F)c2C(=O)Nc2ccnc(S(C)(=N)=O)c2)CC(F)(F)C1` (single isomer, unassigned) [Example 63a, 1-((3,3-Difluoro-1-methylcyclobutyl)methyl)-3-(2,2-difluorocyclopropyl)-N-(2-(S-methylsulfonimidoyl)pyridin-4-yl)-4-(trifluoromethyl)-1H-pyrazole-5-carboxamide] stands not above 100 nM; under `CS(=N)(=O)c1cc(NC(=O)c2c(C(F)(F)F)c(C3CC3)nn2CC2C3(CC3)C23CC3)ccn1` (single isomer, unassigned) [Example 80a, 3-cyclopropyl-1-(dispiro[2.0.24.13]heptan-7-ylmethyl)-N-(2-(S-methylsulfonimidoyl)pyridin-4-yl)-4-(trifluoromethyl)-1H-pyrazole-5-carboxamide], not above 100 nM; under `C[S@](=N)(=O)c1cc(NC(=O)c2c(C(F)(F)F)c(C3CC3)nn2C[C@@H]2CC23CC3)ccn1` (single isomer, unassigned) [Example 78b, 3-cyclopropyl-N-(2-(S-methylsulfonimidoyl)pyridin-4-yl)-1-(spiro[2.2]pentan-1-ylmethyl)-4-(trifluoromethyl)-1H-pyrazole-5-carboxamide], not above 100 nM.
The result for `C[S@@](=N)(=O)c1cc(NC(=O)c2c(C(F)(F)F)c(C3CC3)nn2C[C@H]2C(F)(F)C23CC3)ccn1` (single isomer, unassigned) [Example 79a, 3-cyclopropyl-1-((2,2-difluorospiro[2.2]pentan-1-yl)methyl)-N-(2-(S-methylsulfonimidoyl)pyridin-4-yl)-4-(trifluoromethyl)-1H-pyrazole-5-carboxamide] reads not above 100 nM; that for `CC1(Cn2nc(C3CC4(CC4)C3)c(C(F)(F)F)c2C(=O)Nc2ccnc(S(C)(=N)=O)c2)CC(F)(F)C1` (single isomer, unassigned) [Example 61a, 1-((3,3-Difluoro-1-methylcyclobutyl)methyl)-N-(2-(S-methylsulfonimidoyl)pyridin-4-yl)-3-(spiro[2.3]hexan-5-yl)-4-(trifluoromethyl)-1H-pyrazole-5-carboxamide], not above 100 nM.
As for `Cc1c(C(C)(F)F)nn(CC2CCC(F)(F)CC2)c1C(=O)Nc1ccnc(S(C)(=N)=O)c1` (single isomer, unassigned) [Example 9a, 1-((4,4-difluorocyclohexyl)methyl)-3-(1,1-difluoroethyl)-4-methyl-N-(2-(S-methylsulfonimidoyl)pyridin-4-yl)-1H-pyrazole-5-carboxamide], the IC50 was not above 100 nM.
As for `CC1(Cn2nc(C34CC(F)(C3)C4)c(C(F)(F)F)c2C(=O)Nc2ccnc(S(C)(=N)=O)c2)CC(F)(F)C1` (single isomer, unassigned) [Example 110a, 1-((3,3-Difluoro-1-methylcyclobutyl)methyl)-3-(3-fluorobicyclo[1.1.1]pentan-1-yl)-N-(2-(S-methylsulfonimidoyl)pyridin-4-yl)-4-(trifluoromethyl)-1H-pyrazole-5-carboxamide], the IC50 is not above 100 nM.
The result for `CC1(Cn2nc(C3(C(F)(F)F)CC3)c(C(F)(F)F)c2C(=O)Nc2ccnc(S(C)(=N)=O)c2)CC(F)(F)C1` (single isomer, unassigned) [Example 144b, 1-((3,3-Difluoro-1-methylcyclobutyl)methyl)-N-(2-(S-methylsulfonimidoyl)pyridin-4-yl)-4-(trifluoromethyl)-3-(1-(trifluoromethyl)cyclopropyl)-1H-pyrazole-5-carboxamide] reads not above 100 nM; that for `C[C@@H]1C[C@H]1c1nn(CC2(C)CC(F)(F)C2)c(C(=O)Nc2ccnc([S@](C)(=N)=O)c2)c1C(F)(F)F` (single isomer, unassigned) [Example 65c, 1-((3,3-Difluoro-1-methylcyclobutyl)methyl)-3-((trans)-2-methylcyclopropyl)-N-(2-(S-methylsulfonimidoyl)pyridin-4-yl)-4-(trifluoromethyl)-1H-pyrazole-5-carboxamide], not above 100 nM.
Under `CC1(Cn2nc(C3(F)CC3)c(C(F)(F)F)c2C(=O)Nc2ccc(F)c(S(C)(=N)=O)c2)CC(F)(F)C1` (single isomer, unassigned) [Example 126b, 1-((3,3-Difluoro-1-methylcyclobutyl)methyl)-N-(4-fluoro-3-(S-methylsulfonimidoyl)phenyl)-3-(1-fluorocyclopropyl)-4-(trifluoromethyl)-1H-pyrazole-5-carboxamide] stands not above 100 nM; under `Cc1c(C(C)(F)F)nn(CC2CCC(F)(F)CC2)c1C(=O)Nc1ccnc(S(C)(=N)=O)c1` (single isomer, unassigned) [Example 9b, 1-((4,4-difluorocyclohexyl)methyl)-3-(1,1-difluoroethyl)-4-methyl-N-(2-(S-methylsulfonimidoyl)pyridin-4-yl)-1H-pyrazole-5-carboxamide], not above 100 nM; under `CC1(Cn2nc(C3(C#N)CC3)c(C(F)(F)F)c2C(=O)Nc2ccnc(S(C)(=N)=O)c2)CC(F)(F)C1` (single isomer, unassigned) [Example 68a, 3-(1-cyanocyclopropyl)-1-((3,3-difluoro-1-methylcyclobutyl)methyl)-N-(2-(S-methylsulfonimidoyl)pyridin-4-yl)-4-(trifluoromethyl)-1H-pyrazole-5-carboxamide], not above 100 nM.
The result for `CC1(Cn2nc(C34CC(F)(C3)C4)c(C(F)F)c2C(=O)Nc2cccc(S(C)(=N)=O)c2)CC(F)(F)C1` (single isomer, unassigned) [Example 113b, 1-((3,3-Difluoro-1-methylcyclobutyl)methyl)-4-(difluoromethyl)-3-(3-fluorobicyclo[1.1.1]pentan-1-yl)-N-(3-(S-methylsulfonimidoyl)phenyl)-1H-pyrazole-5-carboxamide] reads not above 100 nM.
Take `CC1(Cn2nc(C3(F)CC3)c(C(F)(F)F)c2C(=O)Nc2cc(F)cc(S(C)(=N)=O)c2)CC(F)(F)C1` (single isomer, unassigned) [Example 127b, 1-((3,3-Difluoro-1-methylcyclobutyl)methyl)-N-(3-fluoro-5-(S-methylsulfonimidoyl)phenyl)-3-(1-fluorocyclopropyl)-4-(trifluoromethyl)-1H-pyrazole-5-carboxamide]: the IC50 is not above 100 nM.
Under `C[S@](=N)(=O)c1cc(NC(=O)c2c(C(F)(F)F)c(C3CC3)nn2C[C@H]2CC23CC3)ccn1` (single isomer, unassigned) [Example 78d, 3-cyclopropyl-N-(2-(S-methylsulfonimidoyl)pyridin-4-yl)-1-(spiro[2.2]pentan-1-ylmethyl)-4-(trifluoromethyl)-1H-pyrazole-5-carboxamide] stands not above 100 nM.
As to `CS(=N)(=O)c1cc(NC(=O)c2c(C(F)(F)F)c(C3CC3)nn2C[C@@H]2CCC(F)(F)C2)ccn1` (single isomer, unassigned) [Example 17c], the IC50 is not above 100 nM.
The result for `CC1(Cn2nc(C34CC(C3)C4)c(C(F)(F)F)c2C(=O)Nc2ccnc(S(C)(=N)=O)c2)CC(F)(F)C1` (single isomer, unassigned) [Example 58b, 3-(Bicyclo[1.1.1]pentan-1-yl)-1-((3,3-difluoro-1-methylcyclobutyl)methyl)-N-(2-(S-methylsulfonimidoyl)pyridin-4-yl)-4-(trifluoromethyl)-1H-pyrazole-5-carboxamide] reads not above 100 nM.
Under `COC1(c2nn(CC3(C)CC(F)(F)C3)c(C(=O)Nc3ccnc(S(C)(=N)=O)c3)c2C(F)(F)F)CC1` (single isomer, unassigned) [Example 71a, 1-((3,3-difluoro-1-methylcyclobutyl)methyl)-3-(1-methoxycyclopropyl)-N-(2-(S-methylsulfonimidoyl)pyridin-4-yl)-4-(trifluoromethyl)-1H-pyrazole-5-carboxamide] stands 100 to 1000 nM.

(Values after US12685726B2, “Sulfoximines as inhibitors of NaV1.8” (Gruenenthal GmbH, priority 2022, dated 2026).)
